Consider 57 compounds from PubChem BioAssay AID493133 (Sanford-Burnham Center for Chemical Genomics, 2011).

Structures are written as SMILES. Active and inactive are the calls of the source. How the calls were made is not given here.

This assay deals with Alkaline phosphatase, tissue-nonspecific isozyme (Homo sapiens) (UniProt P05186). The assay can be described thus: TNAP enzyme activity modulation, counter to mouse IAP activators, SAR follow-up, selectivity assay for mouse IAP activator project, biochemical (AID 493133). To be noted: purified human TNAP enzyme, phosphatase activity counter-screen. A general note: The purpose of a counterscreen is to sort out artefacts and off-target activity.
Alkaline phosphatase, tissue-nonspecific isozyme (Homo sapiens), sequence (P05186 whole entry, looked up): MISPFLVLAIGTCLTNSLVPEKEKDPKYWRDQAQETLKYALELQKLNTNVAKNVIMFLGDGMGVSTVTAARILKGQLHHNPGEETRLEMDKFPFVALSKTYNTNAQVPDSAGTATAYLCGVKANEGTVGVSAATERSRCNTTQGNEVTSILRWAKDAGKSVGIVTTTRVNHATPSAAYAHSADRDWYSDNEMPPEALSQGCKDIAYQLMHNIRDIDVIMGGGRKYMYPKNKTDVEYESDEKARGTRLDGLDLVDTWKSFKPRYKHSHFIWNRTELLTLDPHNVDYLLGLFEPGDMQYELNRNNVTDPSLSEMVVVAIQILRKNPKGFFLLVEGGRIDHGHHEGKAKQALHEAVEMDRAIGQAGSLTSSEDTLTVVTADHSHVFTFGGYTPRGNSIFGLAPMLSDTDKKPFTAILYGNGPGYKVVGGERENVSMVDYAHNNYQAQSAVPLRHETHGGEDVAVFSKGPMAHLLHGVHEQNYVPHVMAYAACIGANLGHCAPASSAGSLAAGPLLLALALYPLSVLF
As for `O=C(CN1C(=O)/C(=C\c2ccco2)SC1=S)Nc1ccccc1C(=O)O`, the EC50 (commonly the concentration giving half of the maximal effect) is > 100 µM (inactive).
For `O=C(CCN1C(=O)/C(=C/c2ccco2)SC1=S)Nc1ccc(O)cc1C(=O)O` the value was > 100 µM (inactive); for `CC(C(=O)Nc1cccc(C(=O)O)c1)N1C(=O)/C(=C\c2ccco2)SC1=S` (configuration not stated), > 100 µM (inactive).
`Cc1ccc(C)c(NC(=O)CCNS(=O)(=O)c2ccc3[nH]c(=O)oc3c2)c1`: the EC50 is > 100 µM (inactive).
For the compound `COc1cc([N+](=O)[O-])ccc1NC(=S)NCCC(c1ccccc1)c1ccccc1`, the EC50 was > 100 µM (inactive).
Regarding `COc1ccc(CNC(=O)CSc2sc3c(O)cc(=O)[nH]c3c2C#N)cc1`, the EC50 was > 100 µM (inactive).
Turning to `Cc1cc(=O)oc2cc(NC(=S)NCCC(c3ccccc3)c3ccccc3)ccc12`, the EC50 is > 100 µM (inactive).
As to `COc1ccc(CNC(=O)CSc2sc3c(O)cc(=O)[nH]c3c2C#N)cc1OC`, the EC50 is > 100 µM (inactive).
Turning to `CC(C(=O)NCCc1ccc(O)cc1)N1C(=O)/C(=C/c2ccco2)SC1=S` (configuration not stated), the EC50 is > 100 µM (inactive).
For `CCOC(=O)NC(=O)CSc1sc2c(O)cc(=O)[nH]c2c1C#N` the value was > 100 µM (inactive); for `O=C(NN=Cc1cccnc1)c1cc(O)c(O)c(O)c1`, > 100 µM (inactive); for `O=[N+]([O-])c1ccc(NC(=S)NCCC(c2ccccc2)c2ccccc2)cc1`, > 100 µM (inactive).
Consider `O=C(N/N=C/c1ccco1)c1cc(O)c(O)c(O)c1`, for which the EC50 was > 100 µM (inactive).
As to `COC(=O)NNC(=O)c1cc(OC)c(OC)c(OC)c1`, the EC50 is > 100 µM (inactive).
Take `O=C(CCNS(=O)(=O)c1ccc2[nH]c(=O)oc2c1)Nc1ccccc1`: the EC50 was > 100 µM (inactive).
On to `COc1ccc(OC)c(NC(=O)CSc2sc3c(O)cc(=O)[nH]c3c2C#N)c1`, for which the EC50 is > 100 µM (inactive).
As to `CCN(C(=O)C(C)N1C(=O)/C(=C/c2ccco2)SC1=S)C1CCS(=O)(=O)C1` (configuration not stated), the EC50 was > 100 µM (inactive).
As to `CC(C(=O)Nc1ccc(C(=O)O)c(O)c1)N1C(=O)/C(=C\c2ccco2)SC1=S` (configuration not stated), the EC50 is > 100 µM (inactive).
For `O=C(NNC(=O)c1cc(O)c(O)c(O)c1)NC1CCCCC1` the value was > 100 µM (inactive); for `NS(=O)(=O)c1ccc(-c2ccc(/C=C3\SC(=S)N(C4CCS(=O)(=O)C4)C3=O)o2)cc1` (configuration not stated), > 100 µM (inactive); for `O=C(O)CC(C(=O)O)N1C(=O)/C(=C/c2ccc(-c3nc4ccccc4s3)o2)SC1=S` (configuration not stated), > 100 µM (inactive).
Consider `N#Cc1c(SCC(=O)Nc2ccccc2C(F)(F)F)sc2c(O)cc(=O)[nH]c12`, for which the EC50 was > 100 µM (inactive).
As to `CCOc1ccccc1NC(=O)CCNS(=O)(=O)c1ccc2[nH]c(=O)oc2c1`, the EC50 is > 100 µM (inactive).
As to `Cc1csc(NC(=O)CSc2sc3c(O)cc(=O)[nH]c3c2C#N)n1`, the EC50 was > 100 µM (inactive).
In the case of `COc1ccc(NC(=S)NCCC(c2ccccc2)c2ccccc2)cc1` it was 44.8 µM; in that of `O=C(CN1C(=O)/C(=C/c2ccco2)SC1=S)Nc1ccc(C(=O)O)cc1`, > 100 µM (inactive); in that of `Cc1ccc(NC(=O)CCNS(=O)(=O)c2ccc3[nH]c(=O)oc3c2)cc1`, > 100 µM (inactive).
In the case of `COc1cc(C(=O)NNC(=O)C2CC2)cc(OC)c1OC` it was > 100 µM (inactive); in that of `Cc1ccc(NC(=O)CCNS(=O)(=O)c2ccc3[nH]c(=O)oc3c2)cc1N(C)C`, > 100 µM (inactive); in that of `CC(C(=O)Nc1ccccc1C(=O)O)N1C(=O)/C(=C\c2ccco2)SC1=S` (configuration not stated), > 100 µM (inactive).
Regarding `O=C(N/N=C/C1CC2CCC1C2)c1cc(O)c(O)c(O)c1` (configuration not stated), the EC50 was > 100 µM (inactive).
On to `CC(C)c1ccc(NC(=O)CCNS(=O)(=O)c2ccc3[nH]c(=O)oc3c2)cc1`, for which the EC50 is > 100 µM (inactive).
In the case of `N#Cc1c(SCC(=O)Nc2nc3ccc(Br)cc3s2)sc2c(O)cc(=O)[nH]c12` it was > 100 µM (inactive).
Take `O=C(NCCc1ccc(Cl)cc1)C1CCCN(S(=O)(=O)c2ccc3[nH]c(=O)oc3c2)C1` (configuration not stated): the EC50 is > 100 µM (inactive).
On to `COc1ccc(NC(=O)CCNS(=O)(=O)c2ccc3[nH]c(=O)oc3c2)cc1Cl`, for which the EC50 was > 100 µM (inactive).
As to `CCN(C(=O)CN1C(=O)/C(=C\c2ccco2)SC1=S)C1CCS(=O)(=O)C1` (configuration not stated), the EC50 is > 100 µM (inactive).
Regarding `S=C(NCCC(c1ccccc1)c1ccccc1)Nc1ccc(Cl)cc1Cl`, the concentration giving a half-maximal response (EC50) is 56 µM.
As to `CSc1cccc(NC(=O)CCNS(=O)(=O)c2ccc3[nH]c(=O)oc3c2)c1`, the EC50 is > 100 µM (inactive).
For `COc1cc(C(=O)NNC(=S)NC(=O)c2ccc(Cl)cc2)cc(OC)c1OC` the value was 29.4 µM; for `CCOc1ccc2nc(NC(=O)CN(C)S(=O)(=O)c3ccc4[nH]c(=O)oc4c3)sc2c1`, > 100 µM (inactive); for `COc1cccc(CNC(=O)CCNS(=O)(=O)c2ccc3[nH]c(=O)oc3c2)c1`, > 100 µM (inactive).
In the case of `COc1cc(C(=O)NN=Cc2ccccn2)cc(OC)c1OC` it was 31 µM.
In the case of `O=C(c1ccco1)N1CCN(S(=O)(=O)c2ccc3[nH]c(=O)oc3c2)CC1`, the EC50 is > 100 µM (inactive).
`COc1ccc(NC(=O)C(CC(C)C)NS(=O)(=O)c2ccc3[nH]c(=O)oc3c2)cc1` (configuration not stated): the EC50 was > 100 µM (inactive).
On to `COc1ccccc1NC(=O)CCNS(=O)(=O)c1ccc2[nH]c(=O)oc2c1`, for which the EC50 is > 100 µM (inactive).
With `COc1cc(C(=O)NNC(=O)c2n[nH]c3ccccc23)cc(OC)c1OC`, the 50% effective concentration (EC50) was 75 µM.
As to `O=C(CN1C(=O)/C(=C/c2ccco2)SC1=S)Nc1cccc(C(=O)O)c1`, the EC50 is > 100 µM (inactive).
With `CCOC(=O)N1CCN(S(=O)(=O)c2ccc3[nH]c(=O)oc3c2)CC1`, the EC50 was > 100 µM (inactive).
In the case of `COc1ccc(Cl)cc1NC(=O)CSc1sc2c(O)cc(=O)[nH]c2c1C#N` it was > 100 µM (inactive); in that of `O=C(CN1C(=O)/C(=C\c2ccco2)SC1=S)Nc1ccc(O)cc1C(=O)O`, > 100 µM (inactive).
In the case of `CCOc1ccccc1CNC(=O)CCNS(=O)(=O)c1ccc2[nH]c(=O)oc2c1` it was > 100 µM (inactive); in that of `O=C(CN1C(=O)/C(=C/c2ccco2)SC1=S)Nc1ccc2nccnc2c1`, > 100 µM (inactive).
Take `Cc1ccc(NC(=O)CCNS(=O)(=O)c2ccc3[nH]c(=O)oc3c2)cc1F`: the EC50 was > 100 µM (inactive).
As to `COc1cc(C(=O)NNC(=S)NC(=O)c2ccccc2C)cc(OC)c1OC`, the EC50 is 40.5 µM.
As to `COc1cccc(/C=N/NC(=O)c2cc(O)c(O)c(O)c2)c1`, the EC50 was > 100 µM (inactive).
Take `O=S(=O)(Nc1ncccn1)c1ccc(NC(=S)NCCC(c2ccccc2)c2ccccc2)cc1`: the EC50 was > 100 µM (inactive).
Regarding `CCc1nnc(NC(=O)CSc2sc3c(O)cc(=O)[nH]c3c2C#N)s1`, the EC50 was > 100 µM (inactive).
